Measured values reported in US20240109912A1, “TRICYCLIC PYRIMIDINES AS CYCLIN-DEPENDENT KINASE 7 (CDK7) INHIBITORS” (JANSSEN PHARMACEUTICA NV, priority 2020, published 2024).
Several values for one entry are separate records, joined by “and”; a condition that tells them apart may be missing. Equal values may be shown once. Read-outs that look alike come from different tables or passages of the source.

Tests used:
[1] = system: RNA polymerase II Serine 5 phosphorylation in A549 cells overexpressing CDK7 mutant (C312S); test: Imaging-based cellular RNA PolII Ser5 phosphorylation assay in A549 cells overexpressing CDK7-mutant (C312S); type: cell-based, human; conditions: for IC50: Homo sapiens, A549, A549 cells overexpressing CDK7 mutant (C312S), read-out: CDK7_ A549 mutant hCDK7(pIC50) (converted)
Outline: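 A stably transduced A549 pool overexpressing CDK7 C312S, a mutant that blocks covalent binding at Cys312, while retaining endogenous wild-type CDK7 was used. Ser5 phosphorylation was measured by imaging, and IC50 values were derived.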

[2] = system: RNA polymerase II Serine 5 phosphorylation (CDK7) in A549 cells
Source text: To evaluate inhibition of CDK7 kinase activity, a 384-well automated imaging assay was used. This assay detects Serine 5 phosphorylation on a unique heptapeptide sequence in the C-terminal domain of Rpb1 subunit of RNA polymerase II, the downstream substrate of CDK7. This heptapeptide sequence is repeated up to 52 times in the CTD of Rpb1.
RNA Polymerase II Serine 5 phosphorylation was detected using a specific rabbit Phospho-Rpb1 CTD (Ser5) antibody. A549 adenocarcinoma human alveolar basal epithelial cells were seeded in 20 μl medium (DMEM supplemented with 1% Fetal Bovine Serum (heat inactivated 30′ 56° C.), 2 mM L-glutamine, 50 U/ml penicillin 50 μg/ml streptomycin, 1 mM sodium pyruvate and 50 mM hepes) at 1000 cells/well and cultured in poly-D-lysine coated μclear 384 black plates for 20 hours at 37° C. and 5% CO2.
After incubation cells were challenged with compound for 3 hours at 37° C. and 5% CO2. DMSO was used as high control and as low control 10 μM of the following reference compound was used:
40 nl of test compounds and controls were spotted in cell plates using Echo Liquid Handler (Echo 550, Labcyte). Incubation was followed by 20 minutes fixation with 20 μl 10% formaldehyde at room temperature. Medium/formaldehyde solution was removed, plates were washed 3 times with 30 μl D-PBS (w/o Ca^2+ and Ma^2+) and permeabilization was done by adding 20 μl ice cold methanol for 20 minutes. Cells were washed again 3 times with 30 μl D-PBS and 20 μl blocking buffer (25 ml fetal bovine serum in 500 ml D-PBS) was added for 1 hour.
After removing blocking buffer 20 μl 1/1000 primary antibody rabbit Phospho-Rpb1 CTD (Ser5) antibody was added which binds to the phosphorylated Serine5 of the heptapeptide sequences in the CTD of Rpb1. […] Last, plates were washed 2 times with 30 μl D-PBS and wells were filled with 40 μL D-PBS, plates were sealed (Thermowell sealing tape) and stored at 4° C. until reading. Plates were read with Opera Phenix (Perkin Elmer) with 10× air objective. Data were calculated and analyzed in Phaedra.
IC50 values were calculated using the following formula
Average value of all HC's and all LC's are used for normalizations.
% Effect=100−(sample-LC)/(HC-LC)×100
% Control=(sample/HC)×100
From this an IC50 value can be obtained. An estimate of the slope of the plot in terms of the Hill coefficient is also obtained.

[3] = target: CDK7/cyclinH/MAT1 trimeric complex (Homo sapiens (Human), UniProt P50613); test: In vitro CDK7 assay, potency of irreversible covalent inhibitors (kinact/KI); conditions: for Ki: CDK7 (20 nM enz.) (KI, μM); for kinact: read-out: CDK7 (20 nM enz.) (kinact, s^−1), 20 nM enz.
[4] = read-out: CDK7 (20 nM enz.) (kinact/ KI, M^−1*s^−1), 20 nM enz.

Sequence of CDK7/cyclinH/MAT1 trimeric complex (P50613 whole entry): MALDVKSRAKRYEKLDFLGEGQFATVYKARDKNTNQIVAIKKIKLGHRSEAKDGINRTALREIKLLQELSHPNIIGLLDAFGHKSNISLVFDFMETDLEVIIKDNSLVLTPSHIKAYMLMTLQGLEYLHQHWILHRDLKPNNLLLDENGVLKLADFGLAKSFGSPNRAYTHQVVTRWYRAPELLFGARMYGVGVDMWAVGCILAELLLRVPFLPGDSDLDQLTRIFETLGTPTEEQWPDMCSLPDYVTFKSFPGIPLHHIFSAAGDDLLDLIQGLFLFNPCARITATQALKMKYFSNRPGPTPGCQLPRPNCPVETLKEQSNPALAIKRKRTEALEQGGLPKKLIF
Sequence of CDK7/cyclinH/MAT1 trimeric complex (P51946 whole entry partner): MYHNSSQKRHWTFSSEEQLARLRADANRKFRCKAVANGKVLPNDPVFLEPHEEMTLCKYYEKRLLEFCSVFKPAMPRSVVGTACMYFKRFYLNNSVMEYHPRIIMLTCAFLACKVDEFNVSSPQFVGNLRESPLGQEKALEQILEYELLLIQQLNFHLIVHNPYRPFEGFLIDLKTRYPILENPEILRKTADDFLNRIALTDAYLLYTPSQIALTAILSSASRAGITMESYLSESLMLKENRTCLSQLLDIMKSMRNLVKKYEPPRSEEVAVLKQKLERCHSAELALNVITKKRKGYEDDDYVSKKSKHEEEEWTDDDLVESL
Sequence of CDK7/cyclinH/MAT1 trimeric complex (P51948 whole entry partner): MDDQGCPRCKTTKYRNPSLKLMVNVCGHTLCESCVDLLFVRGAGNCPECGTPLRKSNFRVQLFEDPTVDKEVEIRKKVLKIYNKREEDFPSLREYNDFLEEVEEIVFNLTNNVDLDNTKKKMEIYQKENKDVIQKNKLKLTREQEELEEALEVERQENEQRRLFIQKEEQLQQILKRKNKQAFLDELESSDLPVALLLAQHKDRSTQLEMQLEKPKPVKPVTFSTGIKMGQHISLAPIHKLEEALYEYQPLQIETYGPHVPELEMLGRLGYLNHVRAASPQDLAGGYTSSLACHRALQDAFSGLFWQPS

Row | SMILES | CDK7_ A549 mutant hCDK7(pIC50) ([1]; A549 cells overexpressing CDK7 mutant (C312S)) | IC50 [2] | CDK7 (20 nM enz.) (kinact, s^−1) ([3]; 20 nM enz.) | CDK7 (20 nM enz.) (kinact/ KI, M^−1*s^−1) ([3]; 20 nM enz.) | Ki ([3]; 20 nM enz.) | melting point | IC50 [1] | kinact [3] | kinact/KI [3, 4] | kinact/KI ([3]; read-out: CDK7 (20 nM enz.) (kobs/[I], M^−1*s^−1), 20 nM enz.)
1 | C=CC(=O)N1CC(N2C3CCC2CC(c2ccc4c(c2)Nc2ncnc(N5CCOCC5)c2CO4)C3)C1 (stereo not shown) [compound 41] | <5 | 1200 nM and 1320 nM | 5.55e-05 s⁻¹ and 5.25e-05 s⁻¹ | 56 M⁻¹ s⁻¹ and 58.5 M⁻¹ s⁻¹ | 0.991 µM and 0.898 µM | 208 °C |  |  |  | 
2 | C=CC(=O)N1CC(N2CCC(c3cc(Cl)c4c(c3)Nc3ncnc(N5CCOCC5)c3CO4)CC2)C1 [compound 42] |  | 372 nM |  |  | 0.0282 µM | > 300 °C | > 10000 nM | 4.14e-05 s⁻¹ | 1460 M⁻¹ s⁻¹ | 
3 | C=CC(=O)N1CC(N2CCC(c3cc(Cl)c4c(c3)Nc3ncnc(N5CCS(=O)(=O)CC5)c3CO4)CC2)C1 [compound 43] |  | 132 nM |  |  |  | 296 °C | > 10000 nM |  |  | 1490 M⁻¹ s⁻¹
4 | C=CC(=O)N1CCC(N2CC(c3cc4c(c(C(F)(F)F)c3)OCc3c(ncnc3-c3cnn(C)c3)N4)C2)CC1 [compound 44] |  | 1170 nM |  |  | 0.67 µM | 178 °C | > 10000 nM | 4.31e-05 s⁻¹ | 64.4 M⁻¹ s⁻¹ | 
5 | C=CC(=O)N1CCC(N2CC(c3cc4c(c(C(F)(F)F)c3)OCc3c(ncnc3N3CCOCC3)N4)C2)CC1 [compound 45] |  | 427 nM |  |  | 0.219 µM | 158 °C | > 10000 nM | 4.44e-05 s⁻¹ | 203 M⁻¹ s⁻¹ | 
6 | C=CC(=O)N1CC(N2CCC(c3cc4c(cn3)OCc3c(ncnc3N3CCOCC3)N4)CC2)C1 [compound 48] |  | 776 nM |  |  | 0.232 µM | 220 °C | > 10000 nM | 5.9e-05 s⁻¹ | 254 M⁻¹ s⁻¹ | 
7 | C=CC(=O)N1CC(N2CCC(c3cc4c(c(C)n3)OCc3c(ncnc3N3CCS(=O)(=O)CC3)N4)CC2)C1 [compound 58] |  | 288 nM |  |  | 0.0451 µM | 257 °C | > 10000 nM | 5.57e-05 s⁻¹ | 1240 M⁻¹ s⁻¹ | 
8 | C=CC(=O)N1CCC(N2CCC(c3cc4c(c(C)n3)OCc3c(ncnc3N3CCS(=O)(=O)CC3)N4)CC2)CC1 [compound 59] |  | 151 nM |  |  | 0.0715 µM | 259 °C | > 10000 nM | 5.06e-05 s⁻¹ | 708 M⁻¹ s⁻¹ | 
9 | C=CC(=O)N1CC(N2CCC(c3cc4c(cc3C#N)OCc3c(ncnc3N3CCOCC3)N4)CC2)C1 [compound 61] |  | 2000 nM |  |  | 0.83 µM | > 300 °C | > 10000 nM | 5.1e-05 s⁻¹ | 61.4 M⁻¹ s⁻¹ | 
10 | C=CC(=O)N1CCC(N2CC(c3cc4c(c(C)n3)OCc3c(ncnc3N3CCS(=O)(=O)CC3)N4)C2)CC1 [compound 63] |  | 1700 nM |  |  | 0.174 µM | 190 °C | > 10000 nM | 3.22e-05 s⁻¹ | 186 M⁻¹ s⁻¹ | 
11 | C=CC(=O)N1CC(N2CC(c3cc4c(c(C)n3)OCc3c(ncnc3N3CCS(=O)(=O)CC3)N4)C2)C1 [compound 64] |  | 7240 nM |  |  | 0.427 µM | > 300 °C | > 10000 nM | 4.81e-05 s⁻¹ | 113 M⁻¹ s⁻¹ | 
12 | C=CC(=O)N1CC(N2CCC(c3ccc4c(c3)Nc3ncnc(N5CCOCC5)c3C(CC)O4)CC2)C1 (stereo not shown) [compound 66] |  | 933 nM |  |  | 0.528 µM | 118 °C | > 10000 nM | 4.52e-05 s⁻¹ | 85.5 M⁻¹ s⁻¹ | 
13 | C=CC(=O)N1CC(N2CCN(c3cc4c(cn3)OCc3c(ncnc3N3CCOCC3)N4)CC2)C1 [compound 71] |  | 1350 nM |  |  | 3.2 µM | 256 °C | > 10000 nM | 7.12e-05 s⁻¹ | 22.2 M⁻¹ s⁻¹ | 
14 | C=CC(=O)N1CCC(N2CC(c3cc4c(c(C)n3)OCc3c(ncnc3N3CCS(=O)(=O)CC3)N4)C2)C1 (stereo not shown) [compound 77] |  | 4070 nM |  |  | 0.172 µM | > 300 °C | > 10000 nM | 3.83e-05 s⁻¹ | 223 M⁻¹ s⁻¹ | 
15 | C=CC(=O)N1CCC(N2CC(c3cc(C)c4c(c3)Nc3ncnc(N5CCS(=O)(=O)CC5)c3CO4)C2)CC1 [compound 87] |  | 81.3 nM |  |  | 0.234 µM | 200 °C | 7760 nM | 4.3e-05 s⁻¹ | 184 M⁻¹ s⁻¹ | 
16 | C=CC(=O)N1CCC(N2CCC(c3cc(C)c4c(c3)Nc3ncnc(N5CCS(=O)(=O)CC5)c3CO4)CC2)CC1 [compound 88] |  | 34.7 nM |  |  | 0.0485 µM | 256 °C | 8130 nM | 4.48e-05 s⁻¹ | 923 M⁻¹ s⁻¹ | 
17 | C=CC(=O)N1CCC(N2CCN(c3cc(C)c4c(c3)Nc3ncnc(N5CCS(=O)(=O)CC5)c3CO4)CC2)CC1 [compound 89] |  | 955 nM |  |  | 0.128 µM | 203 °C | > 10000 nM | 5.45e-05 s⁻¹ | 425 M⁻¹ s⁻¹ | 
18 | C=CC(=O)N1CCN(C2CCN(c3cc(C)c4c(c3)Nc3ncnc(N5CCS(=O)(=O)CC5)c3CO4)CC2)CC1 [compound 91] |  | 110 nM |  |  | 0.0406 µM | 267 °C | > 10000 nM | 5.75e-05 s⁻¹ | 1420 M⁻¹ s⁻¹ | 
19 | C=CC(=O)N1CC(N2CCC(c3cc(C)c4c(c3)Nc3ncnc(N5CC(CO)C5)c3CO4)CC2)C1 [compound 107] |  | 3890 nM |  |  | 0.96 µM | 180 °C | > 10000 nM | 5.21e-05 s⁻¹ | 54.3 M⁻¹ s⁻¹ | 
20 | CC#CC(=O)N1CCC(N2CC(c3cc(C)c4c(c3)Nc3ncnc(N5CCS(=O)(=O)CC5)c3CO4)C2)CC1 [compound 133] |  | 91.2 nM |  |  | 0.173 µM | 180 °C | 8510 nM | 2.65e-05 s⁻¹ | 153 M⁻¹ s⁻¹ | 
21 | CC#CC(=O)N1CCC(N2CCN(c3cc(C)c4c(c3)Nc3ncnc(N5CCS(=O)(=O)CC5)c3CO4)CC2)CC1 [compound 136] |  | 257 nM |  |  | 0.0874 µM | 240 °C | > 10000 nM | 5.36e-05 s⁻¹ | 613 M⁻¹ s⁻¹ | 
22 | CC#CC(=O)N1CCN(C2CCN(c3cc(C)c4c(c3)Nc3ncnc(N5CCS(=O)(=O)CC5)c3CO4)CC2)CC1 [compound 137] |  | 166 nM |  |  | 0.254 µM | 267 °C | > 10000 nM | 9.43e-05 s⁻¹ | 372 M⁻¹ s⁻¹ | 
23 | CC#CC(=O)N1CC(N2CCC(c3cc(C)c4c(c3)Nc3ncnc(N5CCS(=O)(=O)CC5)c3CO4)CC2)C1 [compound 151] |  | 115 nM |  |  | 0.16 µM | 189 °C | > 10000 nM | 5.91e-05 s⁻¹ | 370 M⁻¹ s⁻¹ | 
